Literature values as cited in patent US11111208B2, “Process for the preparation of safinamide mesylate intermediate” (RK Pharma Solutions LLC, priority 2019, dated 2021).
Structures can show the parent of a compound that is named as a salt. Where two headings read alike, the source gives them in different places.

Assays:
[1] = not given; remark: listed apart in the source

**Q.** What does the source list for C[C@H](NCc1ccc(OCc2cccc(F)c2)cc1)C(N)=O [Safinamide mesylate, (S)-2-[[4-[(3-fluorophenyl)methoxy]phenyl]methyl]aminopropanamide methanesulfonate (1:1)]?
**A.** solubility (in dimethyl sulfoxide): freely soluble; solubility (in ethanol): sparingly soluble; solubility (in ethyl acetate): practically insoluble; solubility (in methanol): freely soluble; solubility (in water): freely soluble; solubility ([1]; aqueous buffer pH 1.2): highly soluble; solubility ([1]; aqueous buffer pH 4.5): highly soluble; solubility ([1]; aqueous buffer pH 6.8): < 0.4 mg/mL; solubility ([1]; aqueous buffer pH 7.5): < 0.4 mg/mL

**Q.** What does the source list for C[C@H](NCc1ccc(OCc2cccc(F)c2)cc1)C(N)=O [Safinamide, (S)-2-[4-(3-fluorobenzyloxy)-benzylamino]propanamide]?
**A.** neuroprotective and neurorescuing effects (MPTP-treated mice): neuroprotective and neurorescuing effects; neuroprotective and neurorescuing effects (rat kainic acid model): neuroprotective and neurorescuing effects; neuroprotective and neurorescuing effects (gerbil ischemia model): neuroprotective and neurorescuing effects
